Among the data in US20260008760A1, “DIPEPTIDYL PEPTIDASE 1 INHIBITORS AND USES THEREOF” (Insmed Incorporated, priority 2024, published 2026) are IC50 and inhibition values, retold here.

The structures appear in SMILES notation. Where only a bound is given, the exact number is not on record here.

The target in one assay is T1, active mouse DPP1 enzyme (Mus musculus, UniProt P97821).
T1 construct: Each subunit is composed of an N-terminal fragment, a heavy chain and a light chain; purchased R&D Systems
T1 sequence (P97821 25-134 limits assumed): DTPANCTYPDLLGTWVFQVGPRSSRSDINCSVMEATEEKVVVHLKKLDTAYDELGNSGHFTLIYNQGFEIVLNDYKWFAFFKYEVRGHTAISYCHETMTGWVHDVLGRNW
T1 sequence (P97821 231-393 limits assumed): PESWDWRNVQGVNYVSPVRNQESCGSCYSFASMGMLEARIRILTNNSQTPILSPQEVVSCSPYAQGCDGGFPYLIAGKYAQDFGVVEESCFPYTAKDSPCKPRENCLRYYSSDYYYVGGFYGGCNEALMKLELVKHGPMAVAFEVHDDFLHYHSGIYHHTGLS
T1 sequence (P97821 394-462 limits assumed): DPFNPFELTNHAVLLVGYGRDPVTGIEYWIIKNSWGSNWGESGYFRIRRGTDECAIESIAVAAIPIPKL
As to the kind of experiment: Mouse DPP1 Enzyme IC50 Assay. It counts as biochemical. To be noted: active mouse DPP1 enzyme, H-Gly-Arg-AMC substrate, 10 minutes pre-incubation at 37° C., pH 5.5; average of n runs; read-out: Avg. IC50 (Mouse DPP1 enzyme IC50 value ranges). The essentials:
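Recombinant active mouse DPP1 pre-incubated 10 min at 37 °C with compound in 50 mM MES pH 5.5, 50 mM NaCl, 5 mM DTT. H-Gly-Arg-AMC added to a final […], then cleavage followed for 90 min at 37 °C (fluorescence Ex/Em 350/450 nm). IC50 taken from a four-parameter logistic fit against the no-compound control.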

Assay [1] has as its target T2, DPP1 in HL-60 cells (Homo sapiens, UniProt P53634). Put plainly: DPP1 Cell IC50 assay. It counts as cell-based. Also on record: host or cells: HL-60 cells. To be noted: 60 min pre-incubation, H-Gly-Phe-AFC substrate, average of n runs, read-out: Avg. IC50 (DPP1 Cell IC50 value ranges). Put shortly: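 Intracellular DPP1 activity read as AFC fluorescence (Ex/Em 400/505 nm) after 30 min with H-Gly-Phe-AFC (500 μM stock), following 60 min compound pre-incubation at 37° C with HL-60 cells at 5×10^5 live cells per mL in PBS. IC50 by 4-parameter fit against DMSO-only controls.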

Assay [2] addresses T2, DPP1 in HL-60 cells. As to the kind of experiment: DPP1 Cell Single-Point Percent Inhibition Testing. It counts as cell-based. Details: host or cells: HL-60 cells. To be noted: final compound concentration 5 nM, n = 1. Put shortly:
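HL-60 cells in unsupplemented RPMI preincubated 60 min at 37 °C with test article (5 nM final, 0.1% DMSO), then given cell-permeable H-Gly-Phe-AFC (100 μM final) for 30 min. Fluorescence at 400/505 nm; percent inhibition versus vehicle after subtracting cell-free background and 10 μM brensocatib non-specific signal.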

T2 sequence (P53634 25-463): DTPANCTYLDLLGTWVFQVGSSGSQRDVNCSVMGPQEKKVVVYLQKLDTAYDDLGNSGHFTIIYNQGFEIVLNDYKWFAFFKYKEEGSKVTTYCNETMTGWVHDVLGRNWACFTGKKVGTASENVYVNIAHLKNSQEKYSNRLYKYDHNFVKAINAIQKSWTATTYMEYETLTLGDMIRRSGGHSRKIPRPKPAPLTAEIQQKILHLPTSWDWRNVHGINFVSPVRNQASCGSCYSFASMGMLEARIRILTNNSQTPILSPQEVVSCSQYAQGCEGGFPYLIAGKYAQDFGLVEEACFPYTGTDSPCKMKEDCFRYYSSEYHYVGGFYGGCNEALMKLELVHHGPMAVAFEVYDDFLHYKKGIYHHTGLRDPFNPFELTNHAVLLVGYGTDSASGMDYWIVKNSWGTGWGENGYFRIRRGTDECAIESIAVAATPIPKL

Consider `N#C[C@H](Cc1ccc(-c2cnc3c(n2)CCCC3)cc1)NC(=O)[C@@H]1CNCCCO1` [Compound A11, (2S)—N-[(1S)-1-cyano-2-[4-(5,6,7,8-tetrahydroquinoxalin-2-yl)phenyl]ethyl]-1,4-oxazepane-2-carboxamide], for which the concentration for half-maximal inhibition (IC50) (usually the midpoint of a concentration-inhibition curve) on active mouse DPP1 enzyme is greater than 20 nM; at DPP1 in HL-60 cells [1], greater than 2.5 nM. In addition, the inhibition (commonly the change of the read-out against control, counted positive when it falls) at 0.005 µM against DPP1 in HL-60 cells [2] is no more than 76.5%.
Taken in the same sequence, the figures for `CN1CCCC2(C1)C(=O)N(C)c1ccc(-c3ccc(C[C@@H](C#N)NC(=O)[C@@H]4CNCCCO4)cc3)cc12` (stereo partly drawn) [Compound 18, (2S)—N-[(1S)-1-cyano-2-(4-{1,1′-dimethyl-2-oxospiro[indole-3,3′-piperidin]-5-yl}phenyl)ethyl]-1,4-oxazepane-2-carboxamide] were greater than 20 nM, greater than 2.5 nM and no more than 76.5%.
